Results as given in US9302991B2, “Arylamide derivatives as TTX-S blockers” (RaQualia Pharma Inc., priority 2010, dated 2016).

Target: T1, human Nav1.7 channels (Homo sapiens, UniProt Q15858)
T1 construct: expressed in transfected cells; host or cells: CHO
Experiment: FRET assay, human Nav1.7 (EFS on FDSS)
Assay type: cell-based
Conditions: CHO cells expressing human Nav1.7, read-out: IC50 against Nav1.7
Summary of the method: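 CHO cells stably expressing the channel, loaded with CC2-DMPE (10 µM) then DiSBAC2(3) (15 µM) plus VABSC-1, in HEPES-buffered saline pH 7.4 at room temperature. Electrical field stimulation on FDSS; FRET ratio at 440 nm fitted for IC50.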

T1 sequence (Q15858 whole entry): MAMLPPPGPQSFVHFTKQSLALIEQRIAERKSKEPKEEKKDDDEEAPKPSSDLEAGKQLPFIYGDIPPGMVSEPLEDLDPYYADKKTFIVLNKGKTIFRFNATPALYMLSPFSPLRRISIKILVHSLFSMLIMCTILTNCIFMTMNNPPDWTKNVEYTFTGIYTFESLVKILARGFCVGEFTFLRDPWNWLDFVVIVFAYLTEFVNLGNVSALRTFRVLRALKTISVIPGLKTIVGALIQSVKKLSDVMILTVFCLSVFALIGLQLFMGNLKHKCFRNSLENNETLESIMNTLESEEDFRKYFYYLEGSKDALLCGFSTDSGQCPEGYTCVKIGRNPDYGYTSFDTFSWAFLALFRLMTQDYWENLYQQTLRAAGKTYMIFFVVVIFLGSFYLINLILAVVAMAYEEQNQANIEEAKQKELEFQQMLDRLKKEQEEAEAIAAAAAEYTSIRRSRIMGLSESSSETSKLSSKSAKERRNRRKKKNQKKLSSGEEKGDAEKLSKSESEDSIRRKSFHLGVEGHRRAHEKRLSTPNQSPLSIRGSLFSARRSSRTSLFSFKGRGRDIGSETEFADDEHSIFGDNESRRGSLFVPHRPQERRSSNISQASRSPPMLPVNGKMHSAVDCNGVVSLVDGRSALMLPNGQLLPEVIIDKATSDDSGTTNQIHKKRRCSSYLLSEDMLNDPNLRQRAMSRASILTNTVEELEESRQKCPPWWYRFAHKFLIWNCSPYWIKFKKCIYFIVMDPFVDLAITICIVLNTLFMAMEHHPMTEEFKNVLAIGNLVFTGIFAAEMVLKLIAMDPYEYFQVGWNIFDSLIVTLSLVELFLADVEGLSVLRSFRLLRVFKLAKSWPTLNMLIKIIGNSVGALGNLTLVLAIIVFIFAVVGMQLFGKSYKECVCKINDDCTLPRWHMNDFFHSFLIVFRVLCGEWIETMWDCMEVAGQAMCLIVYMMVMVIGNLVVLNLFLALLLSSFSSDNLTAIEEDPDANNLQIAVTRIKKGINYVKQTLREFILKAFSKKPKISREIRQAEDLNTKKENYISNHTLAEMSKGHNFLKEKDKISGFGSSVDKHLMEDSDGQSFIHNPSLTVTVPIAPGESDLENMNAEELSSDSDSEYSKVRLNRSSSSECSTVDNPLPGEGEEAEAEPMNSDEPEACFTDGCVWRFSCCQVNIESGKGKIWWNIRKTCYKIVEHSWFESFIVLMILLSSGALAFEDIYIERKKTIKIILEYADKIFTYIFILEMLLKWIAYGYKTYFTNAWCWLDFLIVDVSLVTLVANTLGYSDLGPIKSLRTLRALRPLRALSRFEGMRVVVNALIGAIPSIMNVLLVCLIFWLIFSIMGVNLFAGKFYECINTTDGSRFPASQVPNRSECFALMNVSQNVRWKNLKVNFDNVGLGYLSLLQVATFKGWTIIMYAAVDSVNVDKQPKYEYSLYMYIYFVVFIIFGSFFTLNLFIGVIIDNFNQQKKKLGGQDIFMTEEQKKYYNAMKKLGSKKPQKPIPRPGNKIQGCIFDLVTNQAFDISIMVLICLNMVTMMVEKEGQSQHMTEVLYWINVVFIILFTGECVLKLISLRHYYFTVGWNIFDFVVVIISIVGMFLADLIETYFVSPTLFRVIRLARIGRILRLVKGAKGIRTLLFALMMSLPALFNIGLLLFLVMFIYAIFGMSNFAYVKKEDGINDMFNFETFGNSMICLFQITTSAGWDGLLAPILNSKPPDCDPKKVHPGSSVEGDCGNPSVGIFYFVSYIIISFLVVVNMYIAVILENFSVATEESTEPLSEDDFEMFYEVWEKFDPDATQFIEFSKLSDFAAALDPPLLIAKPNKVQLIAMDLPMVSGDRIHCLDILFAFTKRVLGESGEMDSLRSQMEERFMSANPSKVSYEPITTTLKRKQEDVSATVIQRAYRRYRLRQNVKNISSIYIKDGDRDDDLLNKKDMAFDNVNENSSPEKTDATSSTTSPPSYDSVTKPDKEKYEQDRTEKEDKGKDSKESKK

Row | SMILES | IC50 [µM]
1 | COc1nc(OCC(F)(F)F)ccc1CN(C)C(=O)c1cc(C)nc(NC(C)=O)c1 [Example 290, 2-acetamido-N-((2-methoxy-6-(2,2,2-trifluoroethoxy)pyridin-3-yl)methyl)-N,6-dimethylisonicotinamide] | < 1
2 | COc1nc(OCC(F)(F)F)ccc1CNC(=O)c1cc(C)nc(NC(=O)C(C)C)n1 [Example 374, 2-isobutyramido-N-((2-methoxy-6-(2,2,2-trifluoroethoxy)pyridin-3-yl)methyl)-6-methylpyrimidine-4-carboxamide] | < 1
3 | CC(=O)Nc1cc(C(=O)NCc2ccc(OCC(F)(F)F)nc2N2CCCCC2)ccn1 [Example 302, 2-acetamido-N-((2-(piperidin-1-yl)-6-(2,2,2-trifluoroethoxy)pyridin-3-yl)methyl)isonicotinamide] | < 1
4 | O=C(NCc1ccc(OCC(F)(F)F)nc1)c1ccnc(NC(=O)C2CC2)n1 [Example 397, 2-(cyclopropanecarboxamido)-N-((6-(2,2,2-trifluoroethoxy)pyridin-3-yl)methyl)pyrimidine-4-carboxamide] | < 1
5 | CCCC(=O)Nc1cc(C(=O)NCc2ccc(OCC(F)(F)F)nc2OCC)ccn1 [Example 337, 2-butyramido-N-((2-ethoxy-6-(2,2,2-trifluoroethoxy)pyridin-3-yl)methyl)isonicotinamide] | < 1
6 | CCC(=O)Nc1nccc(C(=O)NC(C)c2cnc(OCC(F)(F)F)c(Cl)c2)n1 (single isomer, unassigned) [Example 210, N-(1-(5-chloro-6-(2,2,2-trifluoroethoxy)pyridin-3-yl)ethyl)-2-propionamidopyrimidine-4-carboxamide] | < 1
7 | COc1cc(CNC(=O)c2ccnc(NC(=O)C3CC3)n2)cnc1OCC(F)(F)F [Example 444, 2-(cyclopropanecarboxamido)-N-((5-methoxy-6-(2,2,2-trifluoroethoxy)pyridin-3-yl)methyl)pyrimidine-4-carboxamide] | < 1
8 | CCC(=O)Nc1cc(C(=O)NCc2ccc(O[C@H](C)C(F)(F)F)nc2)ccn1 (single isomer, unassigned) [Example 316] | < 1
9 | CCOc1cc(CNC(=O)c2cc(C)nc(NC(C)=O)c2)cnc1OCC(F)(F)F [Example 264, 2-acetamido-N-((5-ethoxy-6-(2,2,2-trifluoroethoxy)pyridin-3-yl)methyl)-6-methylisonicotinamide] | < 1
10 | C=CC(=O)Nc1cc(C(=O)NC(C)c2ccc(OCC(F)(F)F)nc2)cc(C)n1 (single isomer, unassigned) [Example 482, 2-acrylamido-6-methyl-N-(1-(6-(2,2,2-trifluoroethoxy)pyridin-3-yl)ethyl)isonicotinamide] | < 1
11 | Cc1cc(OCC(F)(F)F)ncc1CNC(=O)c1ccnc(NC(=O)C(C)C)c1 [Example 178, 2-isobutyramido-N-((4-methyl-6-(2,2,2-trifluoroethoxy)pyridin-3-yl)methyl)isonicotinamide] | < 1
12 | CCC(=O)Nc1cc(C(=O)NCc2cc(F)c(OCC(F)(F)F)nc2OC)cc(C)n1 [Example 328, N-((5-fluoro-2-methoxy-6-(2,2,2-trifluoroethoxy)pyridin-3-yl)methyl)-2-methyl-6-propionamidoisonicotinamide] | < 1
13 | CCCC(=O)Nc1cc(C(=O)NCc2ccc(OCC(F)(F)F)nc2N2CCCCC2)ccn1 [Example 308, 2-butyramido-N-((2-(piperidin-1-yl)-6-(2,2,2-trifluoroethoxy)pyridin-3-yl)methyl)isonicotinamide] | < 1
14 | CC(=O)Nc1cc(C(=O)NCc2ccc(OCC(F)(F)F)nc2N2CCCCC2)cc(C)n1 [Example 307, 2-acetamido-6-methyl-N-((2-(piperidin-1-yl)-6-(2,2,2-trifluoroethoxy)pyridin-3-yl)methyl)isonicotinamide] | < 1
15 | CCOc1nc(OCC(F)(F)F)ccc1CNC(=O)c1ccnc(NC(C)=O)c1 [Example 332, 2-acetamido-N-((2-ethoxy-6-(2,2,2-trifluoroethoxy)pyridin-3-yl)methyl)isonicotinamide] | < 1

Other lines, results leading:

Row | IC50 [µM] | SMILES
16 | < 1 | Cc1cc(C(=O)NCc2ccc(OCC(F)(F)F)nc2C)cc(NC(=O)C(C)C)n1 [Example 493, 2-isobutyramido-6-methyl-N-((2-methyl-6-(2,2,2-trifluoroethoxy)pyridin-3-yl)methyl)isonicotinamide]
17 | < 1 | CC(C)C(=O)Nc1cc(C(=O)NC(C)c2ccc(OCC(F)(F)C(F)F)nc2)ccn1 (single isomer, unassigned) [Example 654, 2-isobutyramido-N-(1-(6-(2,2,3,3-tetrafluoropropoxy)pyridin-3-yl)ethyl)isonicotinamide]
18 | < 1 | CCc1cc(C(C)NC(=O)c2cc(C)nc(NC(=O)C(C)C)c2)cnc1OCC(F)F (single isomer, unassigned) [Example 893, N-(1-(6-(2,2-difluoroethoxy)-5-ethylpyridin-3-yl)ethyl)-2-isobutyramido-6-methylisonicotinamide]
19 | < 1 | CCc1cc(CNC(=O)c2cc(C)nc(NC(C)=O)c2)cnc1OCC(F)F [Example 932, 2-acetamido-N-((6-(2,2-difluoroethoxy)-5-ethylpyridin-3-yl)methyl)-6-methylisonicotinamide]
20 | < 1 | CC(NC(=O)c1ccnc(NC(=O)C2CC2)n1)c1ccc(OCC(F)(F)F)cc1Cl (single isomer, unassigned) [Example 802, N-(1-(2-chloro-4-(2,2,2-trifluoroethoxy)phenyl)ethyl)-2-(cyclopropanecarboxamido)pyrimidine-4-carboxamide]
21 | < 1 | O=C(NCc1ccc(OCC(F)(F)C(F)F)nc1)c1ccnc(NC(=O)C2CC2)n1 [Example 651, 2-(cyclopropanecarboxamido)-N-((6-(2,2,3,3-tetrafluoropropoxy)pyridin-3-yl)methyl)pyrimidine-4-carboxamide]
22 | < 1 | COc1nc(OCC(F)F)ccc1CNC(=O)c1ccnc(NC(=O)C2CC2)c1 [Example 1153, 2-(cyclopropanecarboxamido)-N-((6-(2,2-difluoroethoxy)-2-methoxypyridin-3-yl)methyl)isonicotinamide]
23 | < 1 | CCC(=O)Nc1cc(C(=O)NCc2ccc(OCC(F)F)c(Cl)c2)ccn1 [Example 998, N-(3-chloro-4-(2,2-difluoroethoxy)benzyl)-2-propionamidoisonicotinamide]
24 | < 1 | CCC(=O)Nc1cc(C(=O)NC(C)c2ccc(OCC(F)(F)C(F)F)nc2)ccn1 (single isomer, unassigned) [Example 653, 2-propionamido-N-(1-(6-(2,2,3,3-tetrafluoropropoxy)pyridin-3-yl)ethyl)isonicotinamide]
25 | < 1 | Cc1cc(C(=O)NCc2cnc(OCC(F)F)c(Cl)c2)cc(NC(=O)C2CC2)n1 [Example 826, N-((5-chloro-6-(2,2-difluoroethoxy)pyridin-3-yl)methyl)-2-(cyclopropanecarboxamido)-6-methylisonicotinamide]
26 | < 1 | CC(=O)Nc1cc(C(=O)NC(C)c2cccc(SC(F)(F)F)c2)cc(C)n1 (single isomer, unassigned) [Example 1031, 2-acetamido-6-methyl-N-(1-(3-((trifluoromethyl)thio)phenyl)ethyl)isonicotinamide]
27 | < 1 | CCC(=O)Nc1cc(C(=O)NC(C)c2cnc(OCC(F)F)c(C)c2)ccn1 (single isomer, unassigned) [Example 552, N-(1-(6-(2,2-difluoroethoxy)-5-methylpyridin-3-yl)ethyl)-2-propionamidoisonicotinamide]
28 | < 1 | CC(NC(=O)c1ccnc(NC(=O)C2CC2)c1)c1ccc(OCC(F)(F)F)cc1Cl (single isomer, unassigned) [Example 798, N-(1-(2-chloro-4-(2,2,2-trifluoroethoxy)phenyl)ethyl)-2-(cyclopropanecarboxamido)isonicotinamide]
29 | < 1 | Cc1cc(C(C)NC(=O)c2ccnc(NC(=O)C3CC3)c2)cnc1OCC(F)F (single isomer, unassigned) [Example 553, 2-(cyclopropanecarboxamido)-N-(1-(6-(2,2-difluoroethoxy)-5-methylpyridin-3-yl)ethyl)isonicotinamide]
30 | < 1 | Cc1cc(C(=O)NC(C)c2cnc(OCC(F)(F)F)c(Cl)c2)cc(NC(=O)C(C)C)n1 (single isomer, unassigned) [Example 521, N-(1-(5-chloro-6-(2,2,2-trifluoroethoxy)pyridin-3-yl)ethyl)-2-isobutyramido-6-methylisonicotinamide]
31 | < 1 | Cc1cc(C(=O)NCc2cnc(OCC(F)(F)F)c(Br)c2)cc(NC(=O)C2CC2)n1 [Example 900, N-((5-bromo-6-(2,2,2-trifluoroethoxy)pyridin-3-yl)methyl)-2-(cyclopropanecarboxamido)-6-methylisonicotinamide]
32 | < 1 | Cc1cc(C(=O)N[C@H](C)c2cccc(C(F)(F)F)c2)cc(NC(=O)C2CC2)n1 (single isomer, unassigned) [Example 838]
33 | < 1 | COc1c(CNC(=O)c2ccnc(NC(=O)C(C)C)c2)cccc1C(F)(F)F [Example 820, 2-isobutyramido-N-(2-methoxy-3-(trifluoromethyl)benzyl)isonicotinamide]
34 | < 1 | Cc1cc(C(=O)NC(C)c2ccc(OCC(F)(F)F)cc2Cl)cc(NC(=O)C(C)C)n1 (single isomer, unassigned) [Example 801, N-(1-(2-chloro-4-(2,2,2-trifluoroethoxy)phenyl)ethyl)-2-isobutyramido-6-methylisonicotinamide]
35 | < 1 | Cc1cc(C(=O)NCc2cnc(OCC(F)(F)F)c(Cl)c2)nc(NC(=O)C2CC2)n1 [Example 1147, N-((5-chloro-6(2,2,2-trifluoroethoxy)pyridin-3-yl)methyl)-2-(cyclopropanecarboxamido)-6-methylpyrimidine-4-carboxamide]
36 | < 1 | COc1cc(OC(F)(F)F)ccc1CNC(=O)c1cc(C)nc(NC(C)=O)c1 [Example 870, 2-acetamido-N-(2-methoxy-4-(trifluoromethoxy)benzyl)-6-methylisonicotinamide]
